Laboratory results from patent publication US20240148744A1 (Celgene Corporation, priority 2021, published 2024).
pIC50: −log10 of the molar value.

What was measured:
[1] = system: Onchocerca gutturosa adult male worms; test: Onchocerca gutturosa in vitro screening model: adult worm motility score and MTT/formazan viability; format: cell-based; details: read-out: O. gutt Activity class
Dirofilaria immitis = test: Heartworm screen Dirofilaria immitis (stage DiMF/DiL4 not specified in the tables); format: cell-based; details: read-out: D. immitis Activity class

## CN(C)c1cccnc1S(=O)(=O)Nc1cccc2c1NCCC2 [Compound 45, 3-(dimethyl-amino)-N-(1,2,3,4-tetra-hydroquin-olin-8-yl)-pyridine-2-sulfonamide]
[1]
  pIC50: 5.30 to 6.30
Dirofilaria immitis
  pIC50: 5.30 to 6.30

## Nc1cccc(S(=O)(=O)Nc2cccc3cccnc23)n1 [Compound 264, 6-amino-N-(quinolin-8-yl)pyridin-2-sulfonamide]
[1]
  pIC50: 5.30 to 6.30
Dirofilaria immitis
  pIC50: 5.30 to 6.30

## CCn1ccnc1S(=O)(=O)Nc1cccc2c(OC)ccnc12 [Compound 122, 1-ethyl-N-(4-methoxyquin-olin-8-yl)-1H-imidazole-2-sulfonamide]
[1]
  pIC50: > 6.70
Dirofilaria immitis
  pIC50: 5.30 to 6.30

## Cc1cccnc1S(=O)(=O)Nc1cccc2c(OCC3CC3)ccnc12 [Compound 28, N-(4-(cyclo-propylmeth-oxy)quinolin-8-yl)-3-meth-ylpyridine-2-sulfonamide]
[1]
  pIC50: 5.30 to 6.30
Dirofilaria immitis
  pIC50: 5.30 to 6.30

## Cc1cccnc1S(=O)(=O)Nc1cccc2cccnc12 [Compound 213, 3-methyl-N-(quinolin-8-yl)pyridine-2-sulfonamide]
[1]
  pIC50: > 6.70
Dirofilaria immitis
  pIC50: 5.30 to 6.30

## O=S(=O)(Nc1cccc2cccnc12)c1cccc(C(F)(F)F)n1 [Compound 156, N-(quinolin-8-yl)-6-(trifluoromethyl) pyridine-2-sulfonamide]
[1]
  pIC50: > 6.70
Dirofilaria immitis
  pIC50: 5.30 to 6.30

## Cc1cc(NS(=O)(=O)c2nccn2C(C)C)c2ncccc2c1 [Compound 35]
[1]
  pIC50: 6.30 to 6.70
Dirofilaria immitis
  pIC50: 6.30 to 6.70

## COc1ccnc2c(NS(=O)(=O)c3ncccc3C)cccc12 [Compound 14, N-(4-meth-oxyquinolin-8-yl)-3-meth-ylpyridine-2-sulfonamide]
[1]
  pIC50: 5.30 to 6.30
Dirofilaria immitis
  pIC50: 5.30 to 6.30

## N#Cc1nc(Cl)ccc1S(=O)(=O)Nc1cccc2cccnc12 [Compound 169, 6-chloro-2-cyano-N-(quinolin-8-yl)pyridine-3-sulfonamide]
[1]
  pIC50: 5.30 to 6.30
Dirofilaria immitis
  pIC50: 5.30 to 6.30

## CCn1ccnc1S(=O)(=O)Nc1cc(F)cc2cccnc12 [Compound 107, 1-ethyl-N-(6-fluoroquinolin-8-yl)-1H-imidazole-2-sulfonamide]
[1]
  pIC50: > 6.70
Dirofilaria immitis
  pIC50: 6.30 to 6.70

## O=S(=O)(Nc1c(Cl)ccc2cccnc12)c1ncccc1Cl [Compound 73, 3-chloro-N-(7-chloro-quinolin-8-yl)pyridine-2-sulfonamide]
[1]
  pIC50: > 6.70
Dirofilaria immitis
  pIC50: 5.30 to 6.30

## Cc1cccnc1S(=O)(=O)Nc1c(N2CCOCC2)ccc2cccnc12 [Compound 18, 3-methyl-N-(7-morpho-linoquinolin-8-yl)pyridine-2-sulfonamide]
[1]
  pIC50: 6.30 to 6.70
Dirofilaria immitis
  pIC50: 6.30 to 6.70

## Cc1ccc(S(=O)(=O)Nc2ccc(Cl)c3cccnc23)nc1 [Compound 118, N-(5-chloro-quinolin-8-yl)-5-methylpyr-idine-2-sulfon-amide]
[1]
  pIC50: > 6.70
Dirofilaria immitis
  pIC50: 5.30 to 6.30

## Cc1ccc(S(=O)(=O)Nc2cccc3cc(C)cnc23)nc1 [Compound 113, 5-methyl-N-(3-methyl-quinolin-8-yl)-pyridine-2-sulfonamide]
[1]
  pIC50: > 6.70
Dirofilaria immitis
  pIC50: 6.30 to 6.70

## Cc1ccc(S(=O)(=O)Nc2cc(F)cc3cccnc23)nc1 [Compound 88, N-(6-fluoro-quinolin-8-yl)-5-methyl-pyridine-2-sulfonamide]
[1]
  pIC50: 5.30 to 6.30
Dirofilaria immitis
  pIC50: 5.30 to 6.30

## Cc1ccc(S(=O)(=O)Nc2c(C)ccc3cccnc23)nc1 [Compound 112, 5-methyl-N-(7-methyl-quinolin-8-yl)-pyridine-2-sulfonamide]
[1]
  pIC50: 6.30 to 6.70
Dirofilaria immitis
  pIC50: 5.30 to 6.30

## Cc1cc(C#N)cc(S(=O)(=O)Nc2cccc3cccnc23)n1 [Compound 167, 4-cyano-6-methyl-N-(quinolin-8-yl)pyridine-2-sulfonamide]
[1]
  pIC50: 6.30 to 6.70
Dirofilaria immitis
  pIC50: 5.30 to 6.30

## O=S(=O)(Nc1cccc2cccnc12)c1cc(F)ccn1 [Compound 160, 4-fluoro-N-(quinolin-8-yl)pyridine-2-sulfonamide]
[1]
  pIC50: > 6.70
Dirofilaria immitis
  pIC50: 5.30 to 6.30

## CCn1cc(C)nc1S(=O)(=O)Nc1cccc2cccnc12 [Compound 191, 1-ethyl-4-methyl-N-(quinolin-8-yl)-1H-imidazole-2-sulfonamide]
[1]
  pIC50: > 6.70
Dirofilaria immitis
  pIC50: 6.30 to 6.70

## CC(C)Oc1ccnc(S(=O)(=O)Nc2cccc3cccnc23)c1 [Compound 245, 4-isopropoxy-N-(quinolin-8-yl)pyridine-2-sulfonamide]
[1]
  pIC50: > 6.70
Dirofilaria immitis
  pIC50: 6.30 to 6.70

## Cc1cc(S(=O)(=O)Nc2cccc3cccnc23)cc(C)n1 [Compound 186, 2,6-dimethyl-N-(quinolin-8-yl)pyridine-4-sulfonamide]
[1]
  pIC50: 6.30 to 6.70
Dirofilaria immitis
  pIC50: 5.30 to 6.30

## O=S(=O)(Nc1cccc2cccnc12)c1ccnc(C(F)(F)F)c1 [Compound 158, N-(quinolin-8-yl)-2-(trifluoromethyl) pyridine-4-sulfonamide]
[1]
  pIC50: 6.30 to 6.70
Dirofilaria immitis
  pIC50: 5.30 to 6.30

## CC(C)(C)c1ccc(S(=O)(=O)Nc2cccc3cccnc23)cn1 [Compound 159, 6-tert-butyl-N-(quinolin-8-yl)pyridine-3-sulfonamide]
[1]
  pIC50: > 6.70
Dirofilaria immitis
  pIC50: 6.30 to 6.70

## COc1nccc(S(=O)(=O)Nc2cccc3cccnc23)n1 [Compound 197, 2-methoxy-N-(quinolin-8-yl)pyrimidine-4-sulfonamide]
[1]
  pIC50: 6.30 to 6.70
Dirofilaria immitis
  pIC50: 5.30 to 6.30

## Cc1ccc(S(=O)(=O)Nc2cccc3cccnc23)c(C)n1 [Compound 187, 2,6-dimethyl-N-(quinolin-8-yl)pyridine-3-sulfonamide]
[1]
  pIC50: 5.30 to 6.30
Dirofilaria immitis
  pIC50: 5.30 to 6.30

## CCn1ccnc1S(=O)(=O)Nc1cc(OC)cc2cccnc12 [Compound 117, 1-ethyl-N-(6-methoxyquin-olin-8-yl)-1H-imidazole-2-sulfonamide]
[1]
  pIC50: 5.30 to 6.30
Dirofilaria immitis
  pIC50: 6.30 to 6.70

## Cc1ccc(S(=O)(=O)Nc2ccc(C)c3cccnc23)nc1 [Compound 58, 5-methyl-N-(5-methyl-quinolin-8-yl)pyridine-2-sulfonamide]
[1]
  pIC50: 6.30 to 6.70
Dirofilaria immitis
  pIC50: 5.30 to 6.30

## COc1ccnc2c(NS(=O)(=O)c3ccc(C)cn3)cccc12 [Compound 124, N-(4-methoxy-quinolin-8-yl)-5-methylpyr-idine-2-sulfon-amide]
[1]
  pIC50: > 6.70
Dirofilaria immitis
  pIC50: 5.30 to 6.30

## Cc1ccc(S(=O)(=O)Nc2cccc3cccnc23)nc1 [Compound 248, 5-methyl-N-(quinolin-8-yl)pyridine-2-sulfonamide]
[1]
  pIC50: 5.30 to 6.30
Dirofilaria immitis
  pIC50: 6.30 to 6.70

## CN(C)c1cccnc1S(=O)(=O)Nc1cccc2cccnc12 [Compound 208, 3-(dimethylamino)-N-(quinolin-8-yl)pyridine-2-sulfonamide]
[1]
  pIC50: > 6.70
Dirofilaria immitis
  pIC50: 5.30 to 6.30

## CC(C)Oc1ccc(S(=O)(=O)Nc2cccc3cccnc23)nc1 [Compound 242, 5-isopropoxy-N-(quinolin-8-yl)pyridine-2-sulfonamide]
[1]
  pIC50: > 6.70
Dirofilaria immitis
  pIC50: 6.30 to 6.70

## Cc1cccnc1S(=O)(=O)Nc1cccc2c(C)ccnc12 [Compound 15, 3-methyl-N-(4-methyl-quinolin-8-yl)pyridine-2-sulfonamide]
[1]
  pIC50: > 6.70
Dirofilaria immitis
  pIC50: 5.30 to 6.30

## Cc1ccc(S(=O)(=O)Nc2cc(C)cc3cccnc23)nc1 [Compound 127, 5-methyl-N-(6-methylquin-olin-8-yl)pyr-idine-2-sulfon-amide]
[1]
  pIC50: > 6.70
Dirofilaria immitis
  pIC50: 6.30 to 6.70

## N#CCc1cccc(S(=O)(=O)Nc2cccc3cccnc23)n1 [Compound 150, 6-(cyanomethyl)-N-(quinolin-8-yl)pyridine-2-sulfonamide]
[1]
  pIC50: 6.30 to 6.70
Dirofilaria immitis
  pIC50: 5.30 to 6.30

## O=S(=O)(Nc1cccc2cccnc12)c1ccnc(C2CC2)c1 [Compound 152]
[1]
  pIC50: > 6.70
Dirofilaria immitis
  pIC50: 5.30 to 6.30

## COc1cnc2c(NS(=O)(=O)c3ccc(C)cn3)cccc2c1 [Compound 121, N-(3-methoxy-quinolin-8-yl)-5-methylpyr-idine-2-sulfon-amide]
[1]
  pIC50: > 6.70
Dirofilaria immitis
  pIC50: 5.30 to 6.30

## O=S(=O)(Nc1cccc2cccnc12)c1cccc(Cl)n1 [Compound 221, 6-chloro-N-(quinolin-8-yl)pyridine-2-sulfonamide]
[1]
  pIC50: > 6.70
Dirofilaria immitis
  pIC50: 5.30 to 6.30

## Cc1ncc(Cl)cc1S(=O)(=O)Nc1cccc2cccnc12 [Compound 181, 5-chloro-2-methyl-N-(quinolin-8-yl)pyridine-3-sulfonamide]
[1]
  pIC50: 5.30 to 6.30
Dirofilaria immitis
  pIC50: 6.30 to 6.70

## CCn1ccnc1S(=O)(=O)Nc1ccc(Cl)c2cccnc12 [Compound 110, N-(5-chloro-quinolin-8-yl)-1-ethyl-1H-imidazole-2-sulfonamide]
[1]
  pIC50: 6.30 to 6.70
Dirofilaria immitis
  pIC50: 6.30 to 6.70

## CC(C)c1cccnc1S(=O)(=O)Nc1c(Cl)ccc2cccnc12 [Compound 68, N-(7-chloro-quinolin-8-yl)-3-iso-propylpyr-idine-2-sulfonamide]
[1]
  pIC50: > 6.70
Dirofilaria immitis
  pIC50: 5.30 to 6.30

## Cc1cccnc1S(=O)(=O)Nc1c(Cl)ccc2cccnc12 [Compound 100, N-(7-chloro-quinolin-8-yl)-3-methylpyr-idine-2-sulfon-amide]
[1]
  pIC50: > 6.70
Dirofilaria immitis
  pIC50: 5.30 to 6.30

## CC(C)n1nccc1S(=O)(=O)Nc1cccc2cccnc12 [Compound 206, 1-isopropyl-N-(quinolin-8-yl)-1H-pyrazole-5-sulfonamide]
[1]
  pIC50: 6.30 to 6.70
Dirofilaria immitis
  pIC50: 5.30 to 6.30

## COc1ccc(S(=O)(=O)Nc2cccc3cccnc23)cn1 [Compound 144, 6-methoxy-N-(quinolin-8-yl)pyridine-3-sulfonamide]
Dirofilaria immitis
  pIC50: 5.30 to 6.30

## Cc1cnc2c(NS(=O)(=O)c3ncccc3C)cccc2c1 [Compound 66, 3-methyl-N-(3-methyl-quinolin-8-yl)pyridine-2-sulfonamide]
Dirofilaria immitis
  pIC50: 5.30 to 6.30

## Cc1ccc(S(=O)(=O)Nc2cc(Cl)cc3cccnc23)nc1 [Compound 115, N-(6-chloro-quinolin-8-yl)-5-methylpyr-idine-2-sulfon-amide]
Dirofilaria immitis
  pIC50: 5.30 to 6.30

## CCn1ccnc1S(=O)(=O)Nc1ccc(C#N)c2cccnc12 [Compound 290, N-(5-cyanoquinolin-8-yl)-1-ethyl-1H-imidazole-2-sulfonamide]
Dirofilaria immitis
  pIC50: 6.30 to 6.70

## O=S(=O)(Nc1cccc2cccnc12)c1nc2ccccc2[nH]1 [Compound 232, N-(quinolin-8-yl)-1H-benzo[d] imidazole-2-sulfonamide]
Dirofilaria immitis
  pIC50: 5.30 to 6.30

## Cc1ccncc1S(=O)(=O)Nc1cccc2cccnc12 [Compound 148, 4-methyl-N-(quinolin-8-yl)pyridine-3-sulfonamide]
Dirofilaria immitis
  pIC50: 5.30 to 6.30
